Source: US11629143B2, “HipK4 inhibitors and uses thereof” (Vibliome Therapeutics, LLC, priority 2020, dated 2023)

Key:
Test in all cases: Kinase panel (mobility shift)
Format in all cases: biochemical
[1] = biological target: P38-a (Homo sapiens, UniProt Q16539); conditions: at 5 um
Procedure, shortened: (§1)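 Each kinase was incubated with a fluorescently labeled substrate and compound in a standard reaction mix. After the reaction was stopped, product and substrate were separated on microfluidic chips by electrophoretic mobility shift. Activity came from comparing product and substrate peak fluorescence, graded A (95% or greater), B (90%-94%) or C (80%-89%) at 5 um.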

[2] = biological target: T1, TAOK2 (Homo sapiens, UniProt Q9UL54)
T1 sequence (Q9UL54 1-1235): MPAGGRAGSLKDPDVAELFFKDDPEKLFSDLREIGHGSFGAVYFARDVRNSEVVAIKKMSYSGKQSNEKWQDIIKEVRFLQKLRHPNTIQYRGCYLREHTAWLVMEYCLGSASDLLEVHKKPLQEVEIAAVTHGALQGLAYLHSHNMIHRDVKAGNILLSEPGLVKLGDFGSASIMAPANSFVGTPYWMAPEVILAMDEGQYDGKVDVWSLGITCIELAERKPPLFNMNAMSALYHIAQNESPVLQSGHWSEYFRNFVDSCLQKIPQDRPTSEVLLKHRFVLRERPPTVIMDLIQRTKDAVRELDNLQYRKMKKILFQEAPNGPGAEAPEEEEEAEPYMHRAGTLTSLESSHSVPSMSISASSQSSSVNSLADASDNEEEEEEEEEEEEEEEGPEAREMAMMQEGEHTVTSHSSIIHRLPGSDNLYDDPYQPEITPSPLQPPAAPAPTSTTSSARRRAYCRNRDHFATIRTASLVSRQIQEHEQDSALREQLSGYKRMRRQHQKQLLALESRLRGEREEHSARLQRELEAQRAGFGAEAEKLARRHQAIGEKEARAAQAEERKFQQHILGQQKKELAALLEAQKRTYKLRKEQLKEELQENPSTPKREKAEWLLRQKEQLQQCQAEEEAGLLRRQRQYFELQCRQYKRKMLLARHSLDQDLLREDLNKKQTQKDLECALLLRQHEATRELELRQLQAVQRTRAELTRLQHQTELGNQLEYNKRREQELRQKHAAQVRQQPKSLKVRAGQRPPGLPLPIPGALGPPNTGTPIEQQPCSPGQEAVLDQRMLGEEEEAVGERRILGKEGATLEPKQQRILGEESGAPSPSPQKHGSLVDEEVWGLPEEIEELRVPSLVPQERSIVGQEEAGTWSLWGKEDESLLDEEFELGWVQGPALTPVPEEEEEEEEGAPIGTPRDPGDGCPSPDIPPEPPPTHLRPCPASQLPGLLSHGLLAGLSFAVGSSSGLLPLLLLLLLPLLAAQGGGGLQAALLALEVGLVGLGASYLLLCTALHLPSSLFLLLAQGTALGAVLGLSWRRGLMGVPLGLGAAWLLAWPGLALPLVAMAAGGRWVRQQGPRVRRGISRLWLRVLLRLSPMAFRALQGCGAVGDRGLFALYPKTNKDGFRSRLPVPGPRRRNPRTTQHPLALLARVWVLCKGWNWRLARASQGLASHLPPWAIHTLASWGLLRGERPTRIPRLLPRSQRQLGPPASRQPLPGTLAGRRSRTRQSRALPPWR
Procedure, shortened: as §1

[3] = biological target: T2, MUSK (Homo sapiens, UniProt O15146)
T2 sequence (O15146 24-869): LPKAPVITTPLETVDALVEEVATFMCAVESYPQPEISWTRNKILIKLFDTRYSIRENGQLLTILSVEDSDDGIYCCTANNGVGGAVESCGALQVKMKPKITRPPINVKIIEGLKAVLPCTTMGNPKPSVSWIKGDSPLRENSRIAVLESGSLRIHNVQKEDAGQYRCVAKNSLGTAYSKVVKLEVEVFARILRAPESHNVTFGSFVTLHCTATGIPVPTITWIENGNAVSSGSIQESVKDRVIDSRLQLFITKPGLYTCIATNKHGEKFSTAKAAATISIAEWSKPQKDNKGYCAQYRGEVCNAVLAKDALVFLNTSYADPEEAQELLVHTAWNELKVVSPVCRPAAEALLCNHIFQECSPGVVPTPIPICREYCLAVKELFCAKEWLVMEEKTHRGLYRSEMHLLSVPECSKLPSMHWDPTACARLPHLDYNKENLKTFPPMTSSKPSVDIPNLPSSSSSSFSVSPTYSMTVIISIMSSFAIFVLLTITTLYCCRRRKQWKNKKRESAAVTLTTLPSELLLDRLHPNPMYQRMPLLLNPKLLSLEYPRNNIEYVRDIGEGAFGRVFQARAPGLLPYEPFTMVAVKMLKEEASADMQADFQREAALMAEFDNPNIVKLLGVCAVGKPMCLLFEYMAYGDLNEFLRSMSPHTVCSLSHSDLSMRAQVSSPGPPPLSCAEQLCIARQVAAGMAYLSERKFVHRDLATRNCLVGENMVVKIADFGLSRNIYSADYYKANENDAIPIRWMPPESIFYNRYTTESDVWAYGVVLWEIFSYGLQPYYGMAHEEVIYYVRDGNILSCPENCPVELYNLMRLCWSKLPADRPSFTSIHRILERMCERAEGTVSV
Procedure, shortened: as §1

Sequence of P38-a (Q16539 whole entry): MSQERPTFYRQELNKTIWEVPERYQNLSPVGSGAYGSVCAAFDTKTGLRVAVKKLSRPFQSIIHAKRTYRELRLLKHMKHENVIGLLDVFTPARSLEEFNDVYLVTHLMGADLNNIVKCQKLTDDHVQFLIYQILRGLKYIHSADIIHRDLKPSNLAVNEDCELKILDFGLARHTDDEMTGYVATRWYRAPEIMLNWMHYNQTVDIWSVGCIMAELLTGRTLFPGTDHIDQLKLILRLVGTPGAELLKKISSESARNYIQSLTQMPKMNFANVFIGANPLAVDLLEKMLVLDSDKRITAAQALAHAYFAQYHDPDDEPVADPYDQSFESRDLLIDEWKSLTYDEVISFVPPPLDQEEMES

Row | inhibition of kinase activity, P38-a [1] | inhibition at 5 µM [2] | inhibition at 5 µM [3] | SMILES
1 | E (category E is less than 50%) | < 50% | < 50% | CNC(=O)c1ccc(Oc2ccc(NC(=O)c3nc(Cl)oc3-c3ccc(F)cc3)c(F)c2)cn1 [Compound 36]
2 | C (C=80%-89% at 5 um) | < 50% | < 50% | CSc1nc(C(=O)Nc2ccc(Oc3ccnc(C(=O)NC4COC4)c3)c(F)c2)c(-c2ccc(F)c(F)c2)o1 [Compound 37]
3 | D (category D for 50-79) | < 50% | < 50% | CNC(=O)c1cc(Oc2ccc(NC(=O)c3nc(OCC(F)(F)F)oc3-c3ccc(F)cc3)cc2F)ccn1 [Compound 38]
4 | D (category D for 50-79) | < 50% | < 50% | COc1nc(C(=O)Nc2ccc(Oc3ccnc(C(=O)NC4COC4)c3)c(F)c2)c(-c2ccc(F)cc2)o1 [Compound 39]
5 | D (category D for 50-79) | < 50% | < 50% | CSc1nc(C(=O)Nc2ccc(Oc3ccnc(C(=O)NCC(F)(F)F)c3)c(F)c2)c(-c2ccc(F)cc2)o1 [Compound 40]
6 | A (A=95% or greater at 5 um) | < 50% | < 50% | CSc1nc(C(=O)Nc2ccc(Oc3ccnc(C(=O)NCCN(C)C)c3)c(F)c2)c(-c2ccc(F)cc2)o1 [Compound 41]
7 | A (A=95% or greater at 5 um) | < 50% | < 50% | CSc1nc(C(=O)Nc2ccc(Oc3ccnc(C(=O)NC4CCN(C)CC4)c3)c(F)c2)c(-c2ccc(F)cc2)o1 [Compound 42]
8 | E (category E is less than 50%) | < 50% | < 50% | COc1nc(C(=O)Nc2ccc(Oc3ccnc(C(=O)NCC(F)(F)F)c3)c(F)c2)c(-c2ccc(F)cc2)o1 [Compound 43]
